# Assay results: publication PMC6691788, “Design and synthesis of phthalazine-based compounds as potent anticancer agents with potential antiangiogenic activity via VEGFR-2 inhibition” (Journal of Enzyme Inhibition and Medicinal Chemistry, 2019)
# Legend:
# SN12C = experiment: NCI 60 cell panel SRB screen; format: cell-based; conditions: Homo sapiens; for activity at 10 µM: single dose 10 μM, read-out: percent cell growth promotion
# SK-OV-3 = experiment: NCI 60 cell panel SRB screen; format: cell-based; conditions: Homo sapiens; for activity at 10 µM: SK-OV-3, single dose 10 μM, read-out: percent cell growth promotion
# U251 = experiment: NCI 60 cell panel SRB screen; format: cell-based; conditions: Homo sapiens, U-251; for activity at 10 µM: U251, single dose 10 μM, read-out: percent cell growth promotion
# HOP-92 = experiment: NCI 60 cell panel SRB screen; format: cell-based; conditions: Homo sapiens; for activity at 10 µM: HOP-92, single dose 10 μM, read-out: percent cell growth promotion
# SF-295 = experiment: NCI 60 cell panel SRB screen; format: cell-based; conditions: Homo sapiens; for activity at 10 µM: SF-295, single dose 10 μM, read-out: percent cell growth promotion
# NCI/ADR-RES = experiment: NCI 60 cell panel SRB screen; format: cell-based; conditions: Homo sapiens; for activity at 10 µM: single dose 10 μM, read-out: percent cell growth promotion
# RPMI-8226 = experiment: NCI 60 cell panel SRB screen; format: cell-based; conditions: Homo sapiens; for activity at 10 µM: RPMI-8226, single dose 10 μM, read-out: percent cell growth promotion
# SF-268 = experiment: NCI 60 cell panel SRB screen; format: cell-based; conditions: Homo sapiens; for activity at 10 µM: SF-268, single dose 10 μM, read-out: percent cell growth promotion
# UO-31 = experiment: NCI 60 cell panel SRB screen; format: cell-based; conditions: Homo sapiens; for activity at 10 µM: UO-31, single dose 10 μM, read-out: percent cell growth promotion
# K-562 = experiment: NCI 60 cell panel SRB screen; format: cell-based; conditions: Homo sapiens, K562; for activity at 10 µM: K-562, single dose 10 μM, read-out: percent cell growth promotion
# ACHN = experiment: NCI 60 cell panel SRB screen; format: cell-based; conditions: Homo sapiens; for activity at 10 µM: single dose 10 μM, read-out: percent cell growth promotion
# NCI-H23 = experiment: NCI 60 cell panel SRB screen; format: cell-based; conditions: Homo sapiens; for activity at 10 µM: NCI-H23, single dose 10 μM, read-out: percent cell growth promotion
# MDA-MB-435 = experiment: NCI 60 cell panel SRB screen; format: cell-based; conditions: Homo sapiens; for activity at 10 µM: MDA-MB-435, read-out: percent cell growth promotion
# A549/ATCC = experiment: NCI 60 cell panel SRB screen; format: cell-based; conditions: Homo sapiens; for activity at 10 µM: single dose 10 μM, read-out: percent cell growth promotion
# NCI-H522 = experiment: NCI 60 cell panel SRB screen; format: cell-based; conditions: Homo sapiens; for activity at 10 µM: NCI-H522, single dose 10 μM, read-out: percent cell growth promotion
# NCI-H322M = experiment: NCI 60 cell panel SRB screen; format: cell-based; conditions: Homo sapiens; for activity at 10 µM: single dose 10 μM, read-out: percent cell growth promotion
# MOLT-4 = experiment: NCI 60 cell panel SRB screen; format: cell-based; conditions: Homo sapiens; for activity at 10 µM: MOLT-4, single dose 10 μM, read-out: percent cell growth promotion
# VEGFR-2 tyrosine kinase = biological target: T1, VEGFR-2 tyrosine kinase (Homo sapiens, UniProt P35968); experiment: In vitro VEGFR-2 tyrosine kinase assay (BPS Bioscience); format: biochemical; conditions: read-out: VEGFR-2 % inhibition; 10 μM concentration
# T1 construct: purchased BPS Bioscience 40301
# T1 sequence (P35968 20-1356): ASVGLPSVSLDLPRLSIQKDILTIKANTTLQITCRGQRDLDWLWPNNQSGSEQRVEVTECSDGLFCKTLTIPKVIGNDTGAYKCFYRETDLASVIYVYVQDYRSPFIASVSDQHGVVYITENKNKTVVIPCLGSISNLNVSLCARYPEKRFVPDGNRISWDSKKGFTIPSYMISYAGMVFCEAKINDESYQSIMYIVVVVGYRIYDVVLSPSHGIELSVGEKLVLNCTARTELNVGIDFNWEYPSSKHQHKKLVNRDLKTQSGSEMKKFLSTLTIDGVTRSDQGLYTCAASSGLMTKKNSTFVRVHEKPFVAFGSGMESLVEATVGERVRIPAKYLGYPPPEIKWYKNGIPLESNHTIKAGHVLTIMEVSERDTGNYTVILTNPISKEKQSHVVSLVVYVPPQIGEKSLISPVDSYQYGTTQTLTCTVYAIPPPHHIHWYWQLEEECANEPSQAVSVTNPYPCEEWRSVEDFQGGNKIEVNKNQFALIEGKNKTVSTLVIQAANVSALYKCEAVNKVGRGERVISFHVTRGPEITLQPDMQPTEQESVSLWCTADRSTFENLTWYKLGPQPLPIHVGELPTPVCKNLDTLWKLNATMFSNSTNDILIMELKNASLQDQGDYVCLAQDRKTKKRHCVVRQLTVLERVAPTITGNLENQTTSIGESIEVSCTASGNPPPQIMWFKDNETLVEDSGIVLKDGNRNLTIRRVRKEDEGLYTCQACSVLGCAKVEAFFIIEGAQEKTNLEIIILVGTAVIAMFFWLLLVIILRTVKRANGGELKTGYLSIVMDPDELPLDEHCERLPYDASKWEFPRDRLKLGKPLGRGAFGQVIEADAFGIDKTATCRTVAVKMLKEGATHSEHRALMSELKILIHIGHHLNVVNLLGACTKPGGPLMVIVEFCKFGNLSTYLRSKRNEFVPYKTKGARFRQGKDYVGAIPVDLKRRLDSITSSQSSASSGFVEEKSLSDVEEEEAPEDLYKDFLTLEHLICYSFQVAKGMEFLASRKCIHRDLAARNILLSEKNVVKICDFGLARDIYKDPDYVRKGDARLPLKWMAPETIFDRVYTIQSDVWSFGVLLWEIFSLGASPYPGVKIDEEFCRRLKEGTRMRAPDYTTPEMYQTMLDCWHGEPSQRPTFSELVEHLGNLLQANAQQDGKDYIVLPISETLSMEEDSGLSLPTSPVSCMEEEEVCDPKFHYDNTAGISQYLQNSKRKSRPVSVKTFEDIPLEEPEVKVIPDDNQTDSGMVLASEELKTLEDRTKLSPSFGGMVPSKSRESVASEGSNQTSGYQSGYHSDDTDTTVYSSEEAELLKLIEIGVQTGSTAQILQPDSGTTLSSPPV
# Procedure, shortened: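 For IC50, ADP formation after a 30-min 30 °C reaction was detected by ADP-Glo luminescence in duplicate, blank-subtracted and fitted as log inhibitor versus normalised response. The 10 µM single-dose test instead measured remaining ATP (Kinase-Glo Plus) after 40 min at 30 °C with poly(Glu,Tyr) substrate, 10 μM ATP, pH 7.4, 1% DMSO.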
# UACC-257 = experiment: NCI 60 cell panel SRB screen; format: cell-based; conditions: Homo sapiens; for activity at 10 µM: UACC-257, read-out: percent cell growth promotion
# MCF7 = experiment: NCI 60 cell panel SRB screen; format: cell-based; conditions: Homo sapiens; for activity at 10 µM: MCF7, read-out: percent cell growth promotion
# [1] = 5 log dose, 48 h, read-out: LC50 (the source's name)
smiles,measurement,setting,value
"c1ccc(N2CCN(c3nncc4ccccc34)CC2)nc1 [Compound 8d, 1–(4-(Pyridin-2-yl)piperazin-1-yl)phthalazine]",activity at 10 µM,SN12C,102%
same,activity at 10 µM,SK-OV-3,104%
same,activity at 10 µM,U251,96.9%
same,activity at 10 µM,HOP-92,102%
same,activity at 10 µM,SF-295,107%
same,activity at 10 µM,NCI/ADR-RES,109%
same,activity at 10 µM,RPMI-8226,107%
same,activity at 10 µM,SF-268,103%
same,activity at 10 µM,UO-31,96%
same,activity at 10 µM,K-562,106%
same,activity at 10 µM,ACHN,115%
same,activity at 10 µM,NCI-H23,105%
same,activity at 10 µM,MDA-MB-435,104%
same,activity at 10 µM,A549/ATCC,100%
same,activity at 10 µM,NCI-H522,99.4%
same,activity at 10 µM,NCI-H322M,114%
same,activity at 10 µM,MOLT-4,106%
same,inhibition at 10 µM,VEGFR-2 tyrosine kinase,5%
same,activity at 10 µM,UACC-257,99%
same,activity at 10 µM,MCF7,105%
"COc1cccc(NCc2nnc(Nc3ccc(Cl)cc3)c3ccccc23)c1 [Compound 16d, N-(4-Chlorophenyl)-4-((3-methoxyphenylamino)methyl)phthalazin-1-amine]",GI50,SN12C; 5 log dose,2.52 µM
same,IC (TGI),SN12C; 5 log dose,11 µM
same,CC50,SN12C; [1],> 25 µM
same,activity at 10 µM,SN12C,14.5%
same,GI50,"SK-OV-3; SK-OV-3, 5 log dose",1.13 µM
same,IC (TGI),"SK-OV-3; SK-OV-3, 5 log dose",8.19 µM
same,CC50,"SK-OV-3; SK-OV-3, 5 log dose, 48 h, read-out: LC50 (the source's name)",> 25 µM
same,activity at 10 µM,SK-OV-3,-11.9%
same,GI50,"U251; U251, 5 log dose",2.78 µM
same,IC (TGI),"U251; U251, 5 log dose",6.54 µM
same,CC50,"U251; U251, 5 log dose, 48 h, read-out: LC50 (the source's name)",> 25 µM
same,activity at 10 µM,U251,-56.2%
same,GI50,"HOP-92; HOP-92, 5 log dose",0.32 µM
same,IC (TGI),"HOP-92; HOP-92, 5 log dose",2.91 µM
same,CC50,"HOP-92; HOP-92, 5 log dose, 48 h, read-out: LC50 (the source's name)",> 25 µM
same,activity at 10 µM,HOP-92,-32.8%
same,GI50,"SF-295; SF-295, 5 log dose",1.94 µM
same,IC (TGI),"SF-295; SF-295, 5 log dose",8.24 µM
same,CC50,"SF-295; SF-295, 5 log dose, 48 h, read-out: LC50 (the source's name)",> 25 µM
same,activity at 10 µM,SF-295,-22.6%
same,GI50,NCI/ADR-RES; 5 log dose,2.55 µM
same,IC (TGI),NCI/ADR-RES; 5 log dose,> 25 µM
same,CC50,NCI/ADR-RES; [1],> 25 µM
same,activity at 10 µM,NCI/ADR-RES,-5.42%
same,GI50,"RPMI-8226; RPMI-8226, 5 log dose",1.48 µM
same,IC (TGI),"RPMI-8226; RPMI-8226, 5 log dose",7.51 µM
same,CC50,"RPMI-8226; RPMI-8226, 5 log dose, 48 h, read-out: LC50 (the source's name)",> 25 µM
same,activity at 10 µM,RPMI-8226,-28.1%
same,GI50,"SF-268; SF-268, 5 log dose",2.05 µM
same,IC (TGI),"SF-268; SF-268, 5 log dose",10.5 µM
same,CC50,"SF-268; SF-268, 5 log dose, 48 h, read-out: LC50 (the source's name)",> 25 µM
same,activity at 10 µM,SF-268,2.52%
same,GI50,"UO-31; UO-31, 5 log dose",0.6 µM
same,IC (TGI),"UO-31; UO-31, 5 log dose",5.28 µM
same,CC50,"UO-31; UO-31, 5 log dose, 48 h, read-out: LC50 (the source's name)",> 25 µM
same,activity at 10 µM,UO-31,-42.5%
same,GI50,"K-562; K-562, 5 log dose",1.49 µM
same,IC (TGI),"K-562; K-562, 5 log dose",13.1 µM
same,CC50,"K-562; K-562, 5 log dose, 48 h, read-out: LC50 (the source's name)",> 25 µM
same,activity at 10 µM,K-562,2.2%
same,GI50,ACHN; 5 log dose,1.56 µM
same,IC (TGI),ACHN; 5 log dose,24.4 µM
same,CC50,ACHN; [1],> 25 µM
same,activity at 10 µM,ACHN,-5.35%
same,GI50,"NCI-H23; NCI-H23, 5 log dose",1.22 µM
same,IC (TGI),"NCI-H23; NCI-H23, 5 log dose",6.74 µM
same,CC50,"NCI-H23; NCI-H23, 5 log dose, 48 h, read-out: LC50 (the source's name)",24.6 µM
same,activity at 10 µM,NCI-H23,2.05%
same,GI50,MDA-MB-435; MDA-MB-435,0.73 µM
same,IC (TGI),"MDA-MB-435; MDA-MB-435, read-out: TGI",4.38 µM
same,activity at 10 µM,MDA-MB-435,-10.3%
same,CC50,"MDA-MB-435; MDA-MB-435, 5 log dose, 48 h, read-out: LC50 (the source's name)",12 µM
same,GI50,A549/ATCC; 5 log dose,1.93 µM
same,IC (TGI),A549/ATCC; 5 log dose,9.42 µM
same,LC50 (concentration killing 50% of cells),"A549/ATCC; 5 log dose, 48 h",> 25 µM
same,activity at 10 µM,A549/ATCC,2.56%
same,GI50,"NCI-H522; NCI-H522, 5 log dose",0.32 µM
same,IC (TGI),"NCI-H522; NCI-H522, 5 log dose",3.31 µM
same,CC50,"NCI-H522; NCI-H522, 5 log dose, 48 h, read-out: LC50 (the source's name)",13.1 µM
same,activity at 10 µM,NCI-H522,-43.8%
same,GI50,NCI-H322M; 5 log dose,1.4 µM
same,IC (TGI),NCI-H322M; 5 log dose,7.85 µM
same,CC50,NCI-H322M; [1],> 25 µM
same,activity at 10 µM,NCI-H322M,3.32%
same,GI50,"MOLT-4; MOLT-4, 5 log dose",1.1 µM
same,IC (TGI),"MOLT-4; MOLT-4, 5 log dose",7.57 µM
same,CC50,"MOLT-4; MOLT-4, 5 log dose, 48 h, read-out: LC50 (the source's name)",> 25 µM
same,activity at 10 µM,MOLT-4,-27.2%
same,inhibition at 10 µM,VEGFR-2 tyrosine kinase,24%
same,GI50,UACC-257; UACC-257,2.04 µM
same,IC (TGI),"UACC-257; UACC-257, read-out: TGI",5.28 µM
same,activity at 10 µM,UACC-257,-39.7%
same,CC50,"UACC-257; UACC-257, 5 log dose, 48 h, read-out: LC50 (the source's name)",11.6 µM
same,GI50,MCF7; MCF7,0.93 µM
same,IC (TGI),"MCF7; MCF7, read-out: TGI",6.4 µM
same,activity at 10 µM,MCF7,-1.96%
same,CC50,"MCF7; MCF7, 5 log dose, 48 h, read-out: LC50 (the source's name)",24.9 µM
